The source of these data is patent US8772509B2, “Indole compounds as positive allosteric modulators of the muscarinic receptor” (Vanderbilt University, priority 2010, dated 2014).

For orientation: pEC50 means −log10 of the EC50, conventionally taken in molar units.

pEC50: −log10 of the molar value.

The assay addresses T1, mAChR M1 (UniProt P08482).
T1 sequence (P08482 1-460): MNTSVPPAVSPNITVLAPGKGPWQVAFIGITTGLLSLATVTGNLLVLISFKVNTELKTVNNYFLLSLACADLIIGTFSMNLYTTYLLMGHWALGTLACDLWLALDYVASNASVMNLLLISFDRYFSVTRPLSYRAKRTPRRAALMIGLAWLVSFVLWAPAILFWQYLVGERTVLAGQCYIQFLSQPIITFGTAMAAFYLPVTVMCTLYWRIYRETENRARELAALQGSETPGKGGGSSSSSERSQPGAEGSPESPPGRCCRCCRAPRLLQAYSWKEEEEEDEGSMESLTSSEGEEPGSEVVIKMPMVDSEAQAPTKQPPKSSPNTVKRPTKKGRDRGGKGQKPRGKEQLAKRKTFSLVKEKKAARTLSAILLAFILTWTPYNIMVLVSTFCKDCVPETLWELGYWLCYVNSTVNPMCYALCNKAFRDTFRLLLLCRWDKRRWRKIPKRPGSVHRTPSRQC
Kind of assay: mAChR M1 cell-based functional assay (calcium mobilization, Fluo-4, FDSS). To be noted: for Efficacy (% ACh maximum at 30 μM): maximal calcium flux response from curve fit or response at 30 μM compound, as % of the EC80 ACh response; for pEC50: positive allosteric modulation of EC20 acetylcholine response, CHO-K1 cells expressing mAChR M1, read-out: Potency (EC50). Here is the method: Chinese hamster ovary (CHO-K1) cells stably expressing rat (r)M1 were purchased from the American Type Culture Collection and cultured according to their indicated protocol. […] To make stable rM2, hM2, rM3, hM4, and rM4 cell lines for use in calcium mobilization assays, these cells also were stably transfected with a chimeric G-protein (Gqi5) (provided by B. R. Conklin, University of California, San Francisco) using Lipofectamine 2000. rM1, hM1, rM3, hM3, rM5, and hM5 cells were grown in Ham's F-12 medium containing 10% heat-inactivated fetal bovine serum (FBS), 20 mM HEPES, and 50 μg/mL G418 sulfate. rM2-Gqi5, hM2-Gqi5, and hM4-Gqi5 cells were grown in the same medium also containing 500 μg/mL Hygromycin B. Stable rM4-Gqi5 cells were grown in DMEM containing 10% heat-inactivated FBS, 20 mM HEPES, 400 μg/mL G418 sulfate, and 500 μg/mL Hygromycin B.
For high throughput measurement of agonist-evoked increases in intracellular calcium, CHO-K1 cells stably expressing muscarinic receptors were plated in growth medium lacking G418 and hygromycin at 15,000 cells/20 μL/well in Greiner 384-well black-walled, tissue culture (TC)-treated, clear-bottom plates (VWR). Cells were incubated overnight at 37° C. and 5% CO2. […] Compound master plates were formatted in an 11 point CRC format (1:3 dilutions) in 100% DMSO with a starting concentration of 10 mM using the BRAVO liquid handler (Agilent). Test compound CRCs were then transferred to daughter plates (240 nL) using the Echo acoustic plate reformatter (Labcyte, Sunnyvale, Calif.) and then diluted into assay buffer (40 μL) to a 2× stock using a Thermo Fisher Combi (Thermo Fisher Scientific, Waltham, Mass.).
Calcium flux was measured using the Functional Drug Screening System (FDSS) 6000 (Hamamatsu Corporation, Tokyo, Japan) as an increase in the fluorescent static ratio. Compounds were applied to cells (20 μL, 2×) using the automated system of the FDSS 6000 at 4 s into the 300 s protocol and the data were collected at 1 Hz. […] Agonist activity was analyzed as a concentration-dependent increase in calcium mobilization upon compound addition. Positive allosteric modulator activity was analyzed as a concentration-dependent increase in the EC20 acetylcholine response. Antagonist activity was analyzed as a concentration-dependent decrease in the EC80 acetylcholine response. Concentration-response curves were generated using a four-parameter logistical equation in XLfit curve fitting software (IDBS, Bridgewater, N.J.) for Excel (Microsoft, Redmond, Wash.) or Prism (GraphPad Software, Inc., San Diego, Calif.).
The calcium mobilization assay was also used to determine “efficacy”. In the context of the assays carried out for the data in Table I, “efficacy” (% ACh at 30 μM) is defined as the maximal response in the calcium flux as determined by the sigmoidal curve fit of the concentration response curve, or in the absence of an acceptable curve fit, the response recorded at 30 μM test compound, stated as a percentage of the response elicited by a concentration of Ach that induces approximately 80% of a maximal (i.e. saturating) ACh response.

As for `[N-]=[N+]=Nc1cccc(Cn2cc(S(=O)(=O)CC(=O)Nc3ccccn3)c3c(F)cc(F)cc32)c1` [compound 13, 2-((1-(3-azidobenzyl)-4,6-difluoro-1H-indol-3-yl)sulfonyl)-N-(pyridin-2-yl)acetamide], the “Efficacy (% ACh maximum at 30 μM)” value came out at 53% and the pEC50 was 5.55. With `Cc1cc(NC(=O)CS(=O)(=O)c2cn(Cc3cccc(-c4ccc(N5CCOCC5)nc4)c3)c3ccccc23)no1` [compound 72, N-(5-methyl-1,2-oxazol-3-yl)-2-[1-({3-[6-(morpholin-4-yl)pyridin-3-yl]phenyl}methyl)-1H-indole-3-sulfonyl]acetamide], the pEC50 is less than 5.00.

In the case of `COc1cccc(Cn2cc(S(=O)(=O)CC(=O)Nc3cc(C)on3)c3ccccc32)c1` [compound 33, 2-((1-(3-methoxybenzyl)-1H-indol-3-yl)sulfonyl)-N-(5-methylisoxazol-3-yl)acetamide], the “Efficacy (% ACh maximum at 30 μM)” value is listed as 79% and the pEC50 is 5.18.

In the case of `Cc1cc(NC(=O)CS(=O)(=O)c2cn(Cc3ccc(Br)cc3F)c3ccccc23)no1` [compound 60, 2-{1-[(4-bromo-2-fluorophenyl)methyl]-1H-indole-3-sulfonyl}-N-(5-methyl-1,2-oxazol-3-yl)acetamide], the pEC50 was less than 5.00. As to `Cc1cc(NC(=O)C[S+]([O-])c2cn(Cc3cccc(Cl)c3)c3ccccc23)no1` (stereo not shown) [compound 29, 2-((1-(3-chlorobenzyl)-1H-indol-3-yl)sulfinyl)-N-(5-methylisoxazol-3-yl)acetamide], the “Efficacy (% ACh maximum at 30 μM)” value was found to be 93% and the pEC50 was 5.28. For the compound `Cc1cc(NC(=O)CS(=O)(=O)c2cn(Cc3ccc(C(F)(F)F)cc3)c3ccccc23)no1` [compound 53, N-(5-methyl-1,2-oxazol-3-yl)-2-(1-{[4-(trifluoromethyl)phenyl]methyl}-1H-indole-3-sulfonyl)acetamide], the pEC50 was less than 5.00. As for `O=C(CS(=O)(=O)c1cn(Cc2cccc(Br)c2)c2cc(F)cc(F)c12)Nc1cccnc1` [compound 35, 2-((1-(3-bromobenzyl)-4,6-difluoro-1H-indol-3-yl)sulfonyl)-N-(pyridin-3-yl)acetamide], the “Efficacy (% ACh maximum at 30 μM)” value is 42% and the pEC50 is less than 5.00. As for `Cc1cc(NC(=O)C(Cc2ccc(F)cc2F)S(=O)(=O)c2cn(Cc3ccc(F)cc3F)c3ccccc23)no1` (stereo not shown) [compound 71, 3-(2,4-difluorophenyl)-2-{1-[(2,4-difluorophenyl)methyl]-1H-indole-3-sulfonyl}-N-(5-methyl-1,2-oxazol-3-yl)propanamide], the pEC50 was less than 5.00. With `Cc1cc(NC(=O)CS(=O)(=O)c2cn(Cc3cccc(-c4ccccc4)c3)c3ccccc23)no1` [compound 56, N-(5-methyl-1,2-oxazol-3-yl)-2-{1-[(3-phenylphenyl)methyl]-1H-indole-3-sulfonyl}acetamide], the pEC50 was less than 5.00. On to `O=C(CS(=O)(=O)c1cn(Cc2cccc(-n3ccnn3)c2)c2cc(F)cc(F)c12)Nc1ccccn1` [compound 10, 2-((1-(3-(1H-1,2,3-triazol-1-yl)benzyl)-4,6-difluoro-1H-indol-3-yl)sulfonyl)-N-(pyridn-2-yl)acetamide], for which the “Efficacy (% ACh maximum at 30 μM)” value came out at 67% and the pEC50 was 5.59. In the case of `O=C(CS(=O)(=O)c1cn(Cc2cccc(Br)c2)c2cc(F)cc(F)c12)Nc1noc2ccccc12` [compound 21, N-(benzo[d]isoxazol-3-yl)-2-((1-(3-bromobenzyl)-4,6-difluoro-1H-indol-3-yl)sulfonyl)acetamide], the “Efficacy (% ACh maximum at 30 μM)” value is recorded as 72% and the pEC50 is 5.43. On to `Cc1cc(NC(=O)CS(=O)(=O)c2cn(Cc3cccc(Br)c3F)c3ccccc23)no1` [compound 62, 2-{1-[(3-bromo-2-fluorophenyl)methyl]-1H-indole-3-sulfonyl}-N-(5-methyl-1,2-oxazol-3-yl)acetamide], for which the pEC50 was less than 5.00.

On to `Cc1cc(NC(=O)CS(=O)(=O)c2cn(Cc3cccc(Cl)c3)c3ccccc23)no1` [compound 32, 2-((1-(3-chlorobenzyl)-1H-indol-3-yl)sulfonyl)-N-(5-methylisoxazol-3-yl)acetamide], for which the “Efficacy (% ACh maximum at 30 μM)” value is 96% and the pEC50 is 5.24. As to `Cc1cc(NC(=O)CS(=O)(=O)c2cn(Cc3ccccc3F)c3ccccc23)no1` [compound 43, 2-{1-[(2-fluorophenyl)methyl]-1H-indole-3-sulfonyl}-N-(5-methyl-1,2-oxazol-3-yl)acetamide], the pEC50 was less than 5.00. Consider `Cc1cc(NC(=O)C(Cc2ccc(OC(F)(F)F)cc2)S(=O)(=O)c2cn(Cc3ccc(OC(F)(F)F)cc3)c3ccccc23)no1` (stereo not shown) [compound 74, N-(5-methyl-1,2-oxazol-3-yl)-3-[4-(trifluoromethoxy)phenyl]-2-(1-{[4-(trifluoromethoxy)phenyl]methyl}-1H-indole-3-sulfonyl)propanamide], for which the pEC50 is less than 5.00. The same measure, in the same setting: next, `Cc1cc(NC(=O)CS(=O)(=O)c2cn(Cc3cccc(-c4cnn(CC(C)C)c4)c3)c3ccccc23)no1` [compound 65, N-(5-methyl-1,2-oxazol-3-yl)-2-[1-({3-[1-(2-methylpropyl)-1H-pyrazol-4-yl]phenyl}methyl)-1H-indole-3-sulfonyl]acetamide]: less than 5.00; `Cc1cc(NC(=O)CS(=O)(=O)c2cn(Cc3ccc(F)c(-c4cc[nH]n4)c3)c3ccccc23)no1` [compound 58, 2-(1-{[4-fluoro-3-(1H-pyrazol-3-yl)phenyl]methyl}-1H-indole-3-sulfonyl)-N-(5-methyl-1,2-oxazol-3-yl)acetamide]: less than 5.00. With `O=C(CS(=O)(=O)c1cn(Cc2cccc(Br)c2)c2cc(F)cc(F)c12)NCc1ccccn1` [compound 39, 2-((1-(3-bromobenzyl)-4,6-difluoro-1H-indol-3-yl)sulfonyl)-N-(pyridin-2-ylmethyl)acetamide], the “Efficacy (% ACh maximum at 30 μM)” value is recorded as 34% and the pEC50 was less than 5.00. For the compound `Cc1cc(NC(=O)CS(=O)(=O)c2cn(Cc3ccc4c(c3)OCO4)c3ccccc23)no1` [compound 50, 2-[1-(2H-1,3-benzodioxol-5-ylmethyl)-1H-indole-3-sulfonyl]-N-(5-methyl-1,2-oxazol-3-yl)acetamide], the negative logarithm of the EC50 (pEC50) is less than 5.00. As to `Cc1cc(NC(=O)CS(=O)(=O)c2cn(Cc3ccc(F)c(Cl)c3)c3ccccc23)no1` [compound 52, 2-{1-[(3-chloro-4-fluorophenyl)methyl]-1H-indole-3-sulfonyl}-N-(5-methyl-1,2-oxazol-3-yl)acetamide], the pEC50 was less than 5.00. Turning to `Cc1cc(NC(=O)C(C)S(=O)(=O)c2cn(Cc3cc(Br)cc(Br)c3)c3ccccc23)no1` (stereo not shown) [compound 73, 2-{1-[(3,5-dibromophenyl)methyl]-1H-indole-3-sulfonyl}-N-(5-methyl-1,2-oxazol-3-yl)propanamide], the negative logarithm of the EC50 (pEC50) was less than 5.00. As to `O=C(CS(=O)(=O)c1cn(Cc2cccc(-c3cccnc3F)c2)c2cc(F)cc(F)c12)Nc1ccccn1` [compound 24, 2-((4,6-difluoro-1-(3-(2-fluoropyridin-3-yl)benzyl)-1H-indol-3-yl)sulfonyl)-N-(pyridin-2-yl)acetamide], the “Efficacy (% ACh maximum at 30 μM)” value is 38% and the pEC50 was 5.36.
